According to patent publication US9169255B2, “Caffeinated compounds and compositions for treatment of amyloid diseases and synucleinopathies” (ProteoTech Inc, priority 2011, dated 2015):

Assays:
[1] = Plasma and brain pharmacokinetics in mice after intraperitoneal injection; format: in vivo; conditions: CD-1 female mice, i.p. injection at 50 mg/kg, 7-60 min post-dose; for AUC / Cmax: mouse, plasma, ip
Source text: For select compounds in this invention, we have used wild type mice to determine the following plasma pharmacokinetic (PK) parameters: maximal concentration (Cmax), and area under the curve (AUC) as derived from a time versus concentration plot. We have also determined the maximal mouse brain levels, and overall brain exposure over time of select compounds in this invention, expressed as Cmax-brain and AUC-brain, respectively. In order to establish the method, we assessed brain and plasma compound levels over time utilizing 50 mg/kg intraperitoneal (i.p.) injections of 2 control compounds. […] In a typical experiment to assess the compounds in this invention, we used CD-1 female mice with a sample size (n) equal to 4 mice per post-dose time-point (for example, 7, 15, 30, and 60 min post-dose). We chose early time points to assess initial exposure, when we expected plasma and brain exposure to be the high, though we may have missed even higher exposure at earlier time points (between 0 and 7 minutes) since brain and plasma levels were highest in our study at the earliest time point assessed (7 minutes).
For the purpose of these studies, each compound was formulated at 5 mg/mL in 20% polyethylene glycol (PEG)-400 in PBS+0.1% ascorbic acid (w/v). The dose volume was 10 mL/kg of body weight. Mice were administered test compound via intraperitoneal injection, and at about 2-3 minutes before scheduled sacrifice, they were deeply anesthetized with 2.5% avertin. Once anesthetized, whole blood was removed by cardiac puncture, transferred to appropriate EDTA-containing tubes, and immediately chilled on ice. This was followed by complete perfusion of each mouse with >15 ml cold 0.9% saline by cannulation of the left ventricle and clamping of the descending aorta. Brains were harvested, frozen on dry ice and stored at −80° C. for bioanalysis of the test compound. Plasma was extracted from whole blood by standard centrifugation techniques within 1 hour. Compounds were (liquid-liquid) extracted from plasma and brain homogenates using ethyl acetate, followed by HPLC/MS quantitation using methods (i.e. HPLC gradients and mass spectrometry parameters) developed for these novel compounds. All methods established sufficient stability in relevant matrices and solvents, and used internal quantitation controls. Quantitation was achieved using a calibration curve generated with compounds spiked into the appropriate matrix (i.e. 20% PEG-400/PBS+0.1% ascorbic acid). We have established lower limit of quantitative sensitivities of 5-25 ng/ml (plasma) and 5-25 ng/g (brain), sufficient for these studies. Following determination of the brain and plasma concentrations at the various post-dose time points, select plasma (Cmax and AUC) and brain (Cmax-brain and AUC-brain) PK parameters were determined with WinNonLin software (Pharsight Inc). We compared the values determined for the compounds in this invention to the values for the positive control compound that when administered at the same therapeutically relevant route and dose level (i.p. injection at 50 mg/kg) is known to be present in the plasma and the brain at levels sufficient for a biological effect (i.e. reduction of α-synuclein brain levels and improved motor function; data not shown).

[2] = target: T1, A53T-mutant human α-synuclein (Homo sapiens, UniProt P37840, A53T); experiment: Thioflavin S-positive aggregates in rotenone-treated BE-M17 cells overexpressing A53T α-synuclein; format: cell-based
T1 construct: expressed in transfected cells; host or cells: BE-M17 human neuroblastoma cells
Source text: To test the therapeutic potential of the compounds, a cell-based assay was utilized. In this assay, rotenone is used to induce mitochondrial oxidative stress and cause α-synuclein aggregation. The assay utilizes the binding of the fluorescent dye Thioflavin S to structures with high β-sheet content, including α-synuclein fibrils. Therefore, quantitative assessment of the extent of Thioflavin S-positive staining of fixed cells is used to test the ability of the test compounds to inhibit/prevent or decrease the amount of α-synuclein aggregates relative to cells that were treated with rotenone only. This study is presented in the following examples.
BE-M17 human neuroblastoma cells stably transfected with A53T-mutant human α-synuclein were obtained. Cell culture reagents were obtained from Gibco/Invitrogen, and cells were grown in OPTIMEM supplemented with 10% FBS, Penicillin (100 units/ml), Streptomycin (100 μg/ml) and 500 μg/ml G418 as previously described (Ostrerova-Golts et al., J. Neurosci., 20:6048-6054, 2000).
Thioflavin S is commonly used to detect aggregated protein structures in situ, including in brain tissue (Vallet et al., Acta Neuropathol., 83:170-178, 1992), and cultured cells (Ostrerova-Golts et al., J. Neurosci., 20:6048-6054, 2000), whereas Thioflavin T is often used as an in vitro reagent to analyze the aggregation of soluble proteins into fibrils enriched in β-pleated sheet structures (LeVine III, Prot. Sci., 2:404-410, 1993). Therefore, Thioflavin S histochemistry was used on cultured cells to detect aggregates containing a high degree of β-pleated structures that formed in response to oxidative stress-inducing agents (in this case rotenone) as previously described, with minor modifications (Ostrerova-Golts et al., J. Neurosci., 20:6048-6054, 2000). Briefly, for these studies cells were grown on Poly-D-Lysine coated glass slide chambers at approximately 4.5−5.5×10^4 cells/cm^2. After 16-18 hours, cells were treated with 500 nM or 2 μM rotenone (Sigma) or vehicle (0.05% DMSO) as indicated. Within 15 minutes of rotenone (or vehicle) addition, compounds were added at the indicated concentration, or mock-treatment was performed in which cell culture media only (no compound) was added. Identical treatments were repeated after 48 hours. After an additional 24 hours, cells were fixed for 25 minutes in 3% paraformaldehyde. After a PBS wash and a deionized water wash, the cells were incubated with 0.015% Thioflavin S in 50% ethanol for 25 minutes, washed twice for four minutes in 50% ethanol and twice for five minutes in deionized water and then mounted using an aqueous-based mountant designed to protect against photobleaching. Aggregates that bind to Thioflavin S were detected with a fluorescent microscope using a High Q FITC filter set (480 to 535 nm bandwidth) and a 20× objective lens unless otherwise indicated. Between 8 and 20 (usually 16-18) representative images per condition were selected and imaged using Q Capture software by an experimenter who was blinded to treatment conditions. To assess the amount of Thioflavin S-positive aggregates, the total area per field covered by Thioflavin S-positive inclusions was determined by image analysis and quantitation. […] Spurious, non-cell associated fluorescence was manually removed. Unless indicated otherwise, comparisons between groups were made by comparing mean relative amounts of Thioflavin S-positive inclusions for a given treatment condition (i.e. cells treated with rotenone only versus cells treated with rotenone and test compound at a given concentration). Statistical analyses were performed with GraphPad Prism (GraphPad Inc). Differences between means (two samples) were assessed by the Student's t test. Differences among multiple means were assessed by one-factor ANOVA followed by Dunnett's post hoc test, compared to rotenone only treated cells. […]

AUC-brain [1]	Cmax-brain [1] [ng/g]	AUC [1] [ng·h/mL]	Cmax [1] [ng/mL]	reduction of rotenone-induced Thioflavin S-positive aggregates relative to rotenone only-treated cells ([2]; 500 nM rotenone, 500 nM compound) [%]	reduction of rotenone-induced Thioflavin S-positive aggregates relative to rotenone only-treated cells ([2]; 500 nM rotenone, 2 μM compound) [%]	reduction of rotenone-induced Thioflavin S-positive aggregates relative to rotenone only-treated cells ([2]; 2 μM rotenone, 2 μM compound) [%]	reduction of rotenone-induced Thioflavin S-positive aggregates relative to rotenone only-treated cells ([2]; 2 μM rotenone, 5 μM compound) [%]	reduction of rotenone-induced Thioflavin S-positive aggregates relative to rotenone only-treated cells ([2]; 500 nM rotenone, 5 μM compound) [%]	reduction of rotenone-induced Thioflavin S-positive aggregates relative to rotenone only-treated cells ([2]; 2 μM rotenone, 500 nM compound) [%]	Structure (SMILES)
3,048 min*ng/g	99.5	2130	3280	–	–	–	–	–	–	Cn1cnc2c1c(=O)n(Cc1ccc(O)c(O)c1)c(=O)n2Cc1ccc(O)c(O)c1 [PD-150, 7-Methyl-1,3-bis(3′,4′-dihydroxy)benzylxanthine]
2,147 min*ng/g	59.2	3540	5340	52	84	58	60	–	–	Cn1c(=O)n(Cc2ccc(O)c(O)c2)c(=O)c2c1ncn2Cc1ccc(O)c(O)c1 [PD-151, 3-Methyl-1,7-bis(3′,4′-dihydroxybenzyl)xanthine]
–	–	–	–	–	54	79	–	55	78	Cn1c(=O)c2c(ncn2Cc2ccc(O)c(O)c2)n(Cc2ccc(O)c(O)c2)c1=O [PD-152]
